SMILES strings stand for the structures.

The target of one experiment is PI3KC2α Δ1-298 (Homo sapiens (Human), UniProt O00443). The experiment in a line: ADP-Glo kinase assay with purified PI3KC2α Δ1-298. Format: biochemical.
Sequence of PI3KC2α Δ1-298 (O00443 299-1686): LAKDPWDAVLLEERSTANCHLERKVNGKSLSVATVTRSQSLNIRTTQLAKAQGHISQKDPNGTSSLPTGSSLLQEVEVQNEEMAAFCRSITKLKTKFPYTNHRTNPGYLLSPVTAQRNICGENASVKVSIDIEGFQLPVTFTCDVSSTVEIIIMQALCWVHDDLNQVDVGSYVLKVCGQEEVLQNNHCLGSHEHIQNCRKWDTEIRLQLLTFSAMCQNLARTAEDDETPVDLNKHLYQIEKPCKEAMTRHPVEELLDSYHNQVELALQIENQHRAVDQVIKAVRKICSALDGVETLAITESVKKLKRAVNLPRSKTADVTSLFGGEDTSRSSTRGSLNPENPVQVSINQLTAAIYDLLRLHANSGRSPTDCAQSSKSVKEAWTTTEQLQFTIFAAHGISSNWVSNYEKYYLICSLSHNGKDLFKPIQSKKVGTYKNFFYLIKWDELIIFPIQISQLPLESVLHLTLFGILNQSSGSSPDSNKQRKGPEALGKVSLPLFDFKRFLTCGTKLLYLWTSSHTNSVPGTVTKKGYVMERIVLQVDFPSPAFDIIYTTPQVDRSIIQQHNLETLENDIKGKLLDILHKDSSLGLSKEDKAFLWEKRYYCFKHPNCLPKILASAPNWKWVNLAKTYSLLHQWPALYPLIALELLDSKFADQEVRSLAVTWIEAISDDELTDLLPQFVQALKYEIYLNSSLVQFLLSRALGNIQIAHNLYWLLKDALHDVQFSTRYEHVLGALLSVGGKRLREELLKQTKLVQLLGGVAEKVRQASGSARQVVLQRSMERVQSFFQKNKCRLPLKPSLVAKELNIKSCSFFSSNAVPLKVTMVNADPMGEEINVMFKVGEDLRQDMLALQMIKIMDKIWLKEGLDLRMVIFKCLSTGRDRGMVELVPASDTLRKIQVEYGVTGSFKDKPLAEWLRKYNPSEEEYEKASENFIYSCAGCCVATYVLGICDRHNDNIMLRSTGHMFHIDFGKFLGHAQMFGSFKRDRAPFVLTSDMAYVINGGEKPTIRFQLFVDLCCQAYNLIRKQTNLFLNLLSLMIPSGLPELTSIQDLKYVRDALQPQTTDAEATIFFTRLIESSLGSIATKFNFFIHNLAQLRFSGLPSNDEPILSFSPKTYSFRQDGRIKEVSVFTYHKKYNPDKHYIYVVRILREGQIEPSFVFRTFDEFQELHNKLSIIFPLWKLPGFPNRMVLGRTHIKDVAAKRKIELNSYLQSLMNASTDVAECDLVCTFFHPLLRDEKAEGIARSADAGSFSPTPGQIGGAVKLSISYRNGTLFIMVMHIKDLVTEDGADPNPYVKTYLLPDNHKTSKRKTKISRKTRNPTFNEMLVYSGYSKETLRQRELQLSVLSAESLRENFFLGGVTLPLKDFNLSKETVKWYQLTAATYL
Conditions: not given
Here is the method:
Previous studies have shown that PI3KC2α can utilize phosphatidylinositol (PI) or phosphatidylinositol 4-phosphate [PI(4)P] to produce PI(3)P or PI(3,4)P2 respectively but with a preference for PI(3,4)P2 production. To verify that purified PI3KC2α Δ1-298 is active, a radioactive kinase assay was performed with PI as a substrate and different amounts of purified PI3KC2α Δ1-298. The lipid product [PI(3)P] was separated on TLC plates, and the PI(3)P signal was correlated with the amount of PI3KC2α used (FIG. 4A). […] After having confirmed the activity of purified PI3KC2α Δ1-298, an assay suitable for high content screens in multiwell format (ADP-Glo™ assay) was established. The ADP-Glo™ assay has been used for universal detection of ATP hydrolysis. This assay measures ATP hydrolysis occurring during a kinase reaction. For detection, generated ADP is re-converted into ATP with the […] and converted into light by the Ultra-Glo™ Luciferase reagent. The luminescent signal reports kinase activity (FIG. 4B).
The ADP-Glo™ assay was first used to determine the linear correlation range of signal with different amounts of kinase, and then to assess the Kms for ATP and for PI. […] Further optimization of this assay allowed us to carry out medium-to-high throughput screening using low amounts of purified enzyme (at fixed concentrations of: ATP=40 μM, PI=200 μM, PI3KC2α A1−298=10 ng/μl).
Primary screens were performed using the ADP-Glo™ assay in a 384-well format. 37, 224 small molecules were screened for their ability to inhibit kinase activity of PI3KC2α Δ1-298. The concentration of each compound used in the primary screens was 10 μM. Kinase incubations with ATP but without PI were used as negative control samples. This primary screen turned out to be robust with an average z′ factor of 0.57, and therefore judged as successful.
ADP-Glo kinase assay was performed as described by the manufacturer's protocol. Briefly, the kinase assay was performed with a […] of liver PI/ATP/purified PI3KC2α for 20 min in kinase reaction buffer described above. To deplete the remaining ATP from the reaction, 5 μl of […] was added to the kinase reaction mixture and incubated for 40 min. For detection, the generated ADP is re-converted into ATP and converted into light by the Ultra-Glo™ luciferase in kinase detection reagent. The luminescent signal positively correlates with kinase activity. All reactions are performed in Corning® 384 well-white plates.
Broadly, the inhibition is the drop in the measured response relative to a control, in per cent. For `O=C(CSc1nc2nccnc2c(=O)n1CCc1ccccc1)Nc1nc(-c2cccc([N+](=O)[O-])c2)cs1` [Example Compound 58, N-(4-(3-Nitrophenyl)thiazol-2-yl)-2-((4-oxo-3-phenethyl-3,4-dihydropteridin-2-yl)thio)acetamide], the inhibition at 10 µM is 100%.
Same read-out and setting: the same measure for `CC(C)NC(=O)CSc1nc2nccnc2c(=O)n1CCc1ccccc1` [Example Compound 61, N-Isopropyl-2-((4-oxo-3-phenethyl-3,4-dihydropteridin-2-yl)thio)acetamide]: 30%.
In the case of `O=C(CSc1nc2nccnc2c(=O)n1CCc1ccccc1)c1ccccc1F` [Example Compound 64, 2-((2-(2-Fluorophenyl)-2-oxoethyl)thio)-3-phenethylpteridin-4(3H)-one], the inhibition at 10 µM turned out to be 35%.

The same experiment, now with this note: read-out: IC50 (PI3KC2α; ADP-Glo™ assay).
A word on the IC50: it is the concentration at which inhibition is half-maximal. With `O=C(CSc1nc2nccnc2c(=O)n1CCc1ccccc1)Nc1nc(-c2ccc3ccccc3c2)cs1` [Example Compound 48, N-(4-(Naphthalen-2-yl)thiazol-2-yl)-2-((4-oxo-3-phenethyl-3,4-dihydropteridin-2-yl)thio)acetamide], the IC50 was found to be 26000 nM.
On to `O=C(CSc1nc2nccnc2c(=O)n1CCc1ccccc1)Nc1nc(-c2ccc(Cl)cc2)cs1` [Example Compound 49, N-(4-(4-Chlorophenyl)thiazol-2-yl)-2-((4-oxo-3-phenethyl-3,4-dihydropteridin-2-yl)thio)acetamide], for which the IC50 was 7100 nM.
With `N#Cc1ccc(-c2csc(NC(=O)CSc3nc4nccnc4c(=O)n3CCc3ccccc3)n2)cc1` [Example Compound 50, N-(4-(4-Cyanophenyl)thiazol-2-yl)-2-((4-oxo-3-phenethyl-3,4-dihydropteridin-2-yl)thio)acetamide], the IC50 stood at 2900 nM.
Regarding `CS(=O)(=O)c1ccc(-c2csc(NC(=O)CSc3nc4nccnc4c(=O)n3CCc3ccccc3)n2)cc1` [Example Compound 53, N-(4-(4-(Methylsulfonyl)phenyl)thiazol-2-yl)-2-((4-oxo-3-phenethyl-3,4-dihydropteridin-2-yl)thio)acetamide], the IC50 was determined as 1300 nM.
For `O=C(CSc1nc2ncccc2c(=O)n1CCc1ccccc1)Nc1nccs1` [Example Compound 54, 2-((4-Oxo-3-phenethyl-3,4-dihydropyrido[2,3-d]pyrimidin-2-yl)thio)-N-(thiazol-2-yl)acetamide], the IC50 is 820 nM.
Consider `CS(=O)(=O)N(c1cccc(-c2csc(NC(=O)CSc3nc4nccnc4c(=O)n3CCc3ccccc3)n2)c1)S(C)(=O)=O` [Example Compound 55, N-(4-(3-(N-(Methylsulfonyl)methylsulfonamido)phenyl)thiazol-2-yl)-2-((4-oxo-3-phenethyl-3,4-dihydropteridin-2-yl)thio)acetamide], for which the IC50 was determined as 200 nM.
With `COc1cccc2nc(NC(=O)CSc3nc4nccnc4c(=O)n3CCc3ccccc3)sc12` [Example Compound 56, N-(7-Methoxybenzo[d]thiazol-2-yl)-2-((4-oxo-3-phenethyl-3,4-dihydropteridin-2-yl)thio)acetamide], the IC50 is 3100 nM.
The same measure, in the same setting: the same measure for `O=C(CSc1nc2nccnc2c(=O)n1CCc1ccccc1)Nc1nc2c(F)cc(F)cc2s1` [Example Compound 57, N-(4,6-Difluorobenzo[d]thiazol-2-yl)-2-((4-oxo-3-phenethyl-3,4-dihydropteridin-2-yl)thio)acetamide]: 3400 nM; for `Nc1cccc(-c2csc(NC(=O)CSc3nc4nccnc4c(=O)n3CCc3ccccc3)n2)c1` [Example Compound 59, N-(4-(3-Aminophenyl)thiazol-2-yl)-2-((4-oxo-3-phenethyl-3,4-dihydropteridin-2-yl)thio)acetamide]: 150 nM.
`O=C(CSc1nc2nccnc2c(=O)n1CCc1ccccc1)NC1CCC1` [Example Compound 60, N-Cyclobutyl-2-((4-oxo-3-phenethyl-3,4-dihydropteridin-2-yl)thio)acetamide]: the IC50 was 5900 nM.
In the case of `O=c1c2nccnc2nc(SCc2nc3ccccc3s2)n1CCc1ccccc1` [Example Compound 62, 2-((Benzo[d]thiazol-2-ylmethyl)thio)-3-phenethylpteridin-4(3H)-one], the IC50 was found to be 4000 nM.
Regarding `O=c1c2nccnc2nc(SCc2nc3ccccc3o2)n1CCc1ccccc1` [Example Compound 63, 2-((Benzo[d]oxazol-2-ylmethyl)thio)-3-phenethylpteridin-4(3H)-one], the IC50 turned out to be 5700 nM.
Turning to `O=c1c2nccnc2nc(SCc2nc3ccccc3[nH]2)n1CCc1ccccc1` [Example Compound 65, 2-(((1H-Benzo[d]imidazol-2-yl)methyl)thio)-3-phenethylpteridin-4(3H)-one], the IC50 was found to be 170 nM.
Still for that read-out and setting: the same measure for `O=c1[nH]c(CSc2nc3nccnc3c(=O)n2CCc2ccccc2)nc2ccccc12` [Example Compound 67, 2-(((4-Oxo-3,4-dihydroquinazolin-2-yl)methyl)thio)-3-phenethylpteridin-4(3H)-one]: 1900 nM.
On to `Cn1c(=O)c2nc(CSc3nc4nccnc4c(=O)n3CCc3ccccc3)[nH]c2n(C)c1=O` [Example Compound 68, 1,3-Dimethyl-8-(((4-oxo-3-phenethyl-3,4-dihydropteridin-2-yl)thio)methyl)-3,9-dihydro-1H-purine-2,6-dione], for which the IC50 was 1400 nM.
The same measure, in the same setting: then `O=c1c2nccnc2nc(SCc2nc3cc(Cl)ccc3[nH]2)n1CCc1ccccc1` [Example Compound 69, 2-(((5-Chloro-1H-benzo[d]imidazol-2-yl)methyl)thio)-3-phenethylpteridin-4(3H)-one], with 27000 nM.
As for `Cc1ccnc2[nH]c(CSc3nc4nccnc4c(=O)n3CCc3ccccc3)nc12` [Example Compound 70, 2-(((7-Methyl-3H-imidazo[4,5-b]pyridin-2-yl)methyl)thio)-3-phenethylpteridin-4(3H)-one], the IC50 amounted to 42000 nM.
`Cn1ncc2c(=O)[nH]c(CSc3nc4nccnc4c(=O)n3CCc3ccccc3)nc21` [Example Compound 71, 2-(((1-Methyl-4-oxo-4,5-dihydro-1H-pyrazolo[3,4-d]pyrimidin-6-yl)methyl)thio)-3-phenethylpteridin-4(3H)-one]: the IC50 came to 1500 nM.
For `O=c1c2nccnc2nc(SCc2nc3cc(Br)ccc3[nH]2)n1CCc1ccccc1` [Example Compound 72, 2-(((5-Bromo-1H-benzo[d]imidazol-2-yl)methyl)thio)-3-phenethylpteridin-4(3H)-one], the IC50 turned out to be 51000 nM.
On to `O=c1c2nccnc2nc(SCc2nc3cccnc3[nH]2)n1CCc1ccccc1` [Example Compound 73, 2-(((3H-Imidazo[4,5-b]pyridin-2-yl)methyl)thio)-3-phenethylpteridin-4(3H)-one], for which the IC50 came to 610 nM.
With `O=c1c2nccnc2nc(SCc2nc3cc(Br)cnc3[nH]2)n1CCc1ccccc1` [Example Compound 74, 2-(((6-Bromo-3H-imidazo[4,5-b]pyridin-2-yl)methyl)thio)-3-phenethylpteridin-4(3H)-one], the IC50 was found to be 910 nM.
Regarding `COC(=O)c1ccc2[nH]c(CSc3nc4nccnc4c(=O)n3CCc3ccccc3)nc2c1` [Example Compound 75, Methyl 2-(((4-oxo-3-phenethyl-3,4-dihydropteridin-2-yl)thio)methyl)-1H-benzo[d]imidazole-5-carboxylate], the IC50 is 2600 nM.
For `O=c1c2nccnc2nc(SCc2ncc[nH]2)n1CCc1ccccc1` [Example Compound 76, 2-(((1H-Imidazol-2-yl)methyl)thio)-3-phenethylpteridin-4(3H)-one], the IC50 was 22000 nM.
Same read-out and setting: then `Cc1nc(CSc2nc3nccnc3c(=O)n2CCc2ccccc2)[nH]c1C` [Example Compound 77, 2-(((4,5-Dimethyl-1H-imidazol-2-yl)methyl)thio)-3-phenethylpteridin-4(3H)-one], with 23000 nM; and `CS(=O)(=O)c1ccc(-n2c(SCC(=O)Nc3nccs3)nc3nccnc3c2=O)cc1` [Example Compound 78, 2-((3-(4-(Methylsulfonyl)phenyl)-4-oxo-3,4-dihydropteridin-2-yl)thio)-N-(thiazol-2-yl)acetamide], with 9500 nM.
Take `CS(=O)(=O)c1ccc(-n2c(SCc3nc4ccccc4[nH]3)nc3nccnc3c2=O)cc1` [Example Compound 79, 2-(((1H-Benzo[d]imidazol-2-yl)methyl)thio)-3-(4-(methylsulfonyl)phenyl)pteridin-4(3H)-one]: the IC50 is 920 nM.

These data come from patent US12247029B2, “Heterocyclic compounds as class II phosphoinositide 3-kinase inhibitors” (Forschungsverbund Berlin e.V., priority 2018, dated 2025).
